Results on one molecule are retold here after patent publication US20090202451A1, “ORAL CARE PRODUCT AND METHODS OF USE AND MANUFACTURE THEREOF” (COLGATE-PALMOLIVE COMPANY, priority 2008, published 2009).

The assay concerns S. sanguis. The assay can be described thus: Ammonia production by S. sanguis at pH 4.0. The assay is classed as cell-based. The settings on record: 5 millimolar amino acid, 0.1% sucrose, pH 4.0, 37° C., 30 minutes. How it is done: An overnight culture of S. sanguis was grown at 37° C. in trypticase soy broth (Becton Dickinson, Sparks, Md.). The culture was centrifuged at 5,000 rpm for 5 minutes at 1 milliliter at a time into preweighed tubes in order to accumulate approximately 5 milligrams of wet pellet weight. The pellet was then resuspended into 20 millimolar potassium phosphate buffer (J T Baker, Phillipsburg, N.J.), pH 4.0, to simulate a stressed environment for the bacterial cell where ammonia would be produced for survival. The final concentration was 5 milligram per milliliter. To this final concentration, a 5 millimolar final concentration of L-arginine. L-citrulline, or L-ornithine was added along with a 0.1% final concentration of sucrose (VWR, West Chester, Pa.). This mixture was then incubated at 37° C. in a shaking water bath for 30 minutes before ammonia production was determined.
In order to analyze for ammonia, an Ammonia Assay kit was used from Diagnostic Chemicals Limited (Oxford, Conn.). The intended use of this specific kit is for the in vitro quantification of ammonia in plasma, but the procedure was modified in order to determine and quantify the ammonia production in plaque and/or bacteria.

As to `N=C(N)NCCC[C@H](N)C(=O)O` [L-Arginine, L-arginine], the Ammonia (Trial 3) is listed as 2.20 ppm and the Ammonia (Trial 5) was 0.5 ppm.
